The target in one assay is endogenous CGRP receptor (Homo sapiens, UniProt O60894+Q16602). Nature of the assay: CGRP functional antagonism using SK-N-MC-BLA (4C10), β-lactamase transcriptional reporter assay. Type of assay: cell-based. The note with it: SK-N-MC (4C10) cells, inhibition of β-lactamase expression in the presence of 200 pM CGRP.
Assay [1] addresses T1, CGRP receptor (SK-N-MC membrane) (Homo sapiens, UniProt O60894+Q16602).
T1 construct: Purified SK-N-MC membrane was purchased from Perkin Elmer; purchased Perkin Elmer; host or cells: SK-N-MC membrane
Nature of the assay: I125-CGRP binding displacement assay on purified SK-N-MC membrane. A digest of the protocol: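 Human SK-N-MC membranes incubated with compounds and I125-CGRP for 2 h at room temperature in 25 mM Tris-HCl pH 7.4, 5 mM MgCl2, 0.1% BSA, 0.05% Tween, then filtered and counted. Nonspecific binding defined with 1 uM unlabelled CGRP; percent displacement fitted to curves.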

T1 sequence (Q16602 23-461): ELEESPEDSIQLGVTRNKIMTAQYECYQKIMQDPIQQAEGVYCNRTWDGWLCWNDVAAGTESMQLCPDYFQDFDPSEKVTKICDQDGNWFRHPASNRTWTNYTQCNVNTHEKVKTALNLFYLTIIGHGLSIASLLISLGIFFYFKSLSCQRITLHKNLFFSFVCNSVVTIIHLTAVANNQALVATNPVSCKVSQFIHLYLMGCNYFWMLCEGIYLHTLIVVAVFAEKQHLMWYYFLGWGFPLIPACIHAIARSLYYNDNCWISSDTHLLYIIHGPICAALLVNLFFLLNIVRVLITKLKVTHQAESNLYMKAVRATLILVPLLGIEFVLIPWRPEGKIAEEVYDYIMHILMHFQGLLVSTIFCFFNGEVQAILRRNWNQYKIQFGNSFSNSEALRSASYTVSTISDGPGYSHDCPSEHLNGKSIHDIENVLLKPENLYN
T1 sequence (O60894 27-148): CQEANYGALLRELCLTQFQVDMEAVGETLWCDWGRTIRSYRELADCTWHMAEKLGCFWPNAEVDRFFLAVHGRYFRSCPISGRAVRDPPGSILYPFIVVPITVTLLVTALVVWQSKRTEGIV
endogenous CGRP receptor, sequence (Q16602 23-461): as the sequence (Q16602 23-461) above
endogenous CGRP receptor, sequence (O60894 27-148): as the sequence (O60894 27-148) above

As usually defined, the IC50 is the midpoint of a concentration-inhibition curve. A word on the Ki: it is the dissociation constant of the complex between target and ligand, obtained from inhibition or displacement. Lower therefore signals a stronger hold on the target. As to `O=C(CC1SC(c2ccccc2)N(CCc2ccccc2)C1=O)N1CCC(N2Cc3ccccc3NC2=O)CC1` (centres unmarked) [Compound 58], the IC50 on endogenous CGRP receptor was under 1 µM. In assay [1], the Ki was under 1 µM.
With `CC(C)(C)CCN1C(=O)[C@H](CC(=O)N2CCC(N3CCc4ccccc4NC3=O)CC2)SC1c1cccc(F)c1N1CCN(C2CCC2)CC1` (some centres unmarked) [Compound 542], the IC50 at endogenous CGRP receptor is under 1 µM. In assay [1], this compound showed an inhibition constant Ki of under 1 µM.
Regarding `CCN1CCN(c2c(F)cccc2C2SC(CC(=O)N3CCC(n4c(=O)[nH]c5ncccc54)CC3)C(=O)N2CCC(C)(C)C)CC1` (centres unmarked) [Compound 349], the IC50 at endogenous CGRP receptor is under 1 µM. For the same compound, in assay [1], the Ki is under 1 µM.
Take `O=C(CC1SC(c2cccc(F)c2F)N(CC2CCCCC2)C1=O)N1CCC(N2CCc3ccccc3NC2=O)CC1` (centres unmarked) [Compound 279]: on endogenous CGRP receptor, the IC50 was under 1 µM. Moreover, the Ki in assay [1] is under 1 µM.
As to `CC(C)(C)CCN1C(=O)[C@H](CC(=O)N2CCC(n3c(=O)[nH]c4ncccc43)CC2)SC1c1ccccc1C1CCNCC1` (some centres unmarked) [Compound 528], the IC50 at endogenous CGRP receptor was under 1 µM. The compound also displayed a Ki in assay [1] of under 1 µM.
As for `CN1CCN(c2ccccc2C2SC(CC(=O)N3CCC(n4c(=O)[nH]c5ccccc54)CC3)C(=O)N2CCC(C)(C)C)CC1` (centres unmarked) [Compound 302], at endogenous CGRP receptor, the half-maximal inhibitory concentration (IC50) is under 1 µM. For the same compound, in assay [1], the Ki is under 1 µM.
In the case of `CC(C)OCCN1C(=O)[C@H](CC(=O)N2CCC(n3c(=O)[nH]c4ncccc43)CC2)SC1c1cccc(F)c1N1CCN(C(C)(C)C)CC1` (some centres unmarked) [Compound 530], the IC50 at endogenous CGRP receptor is under 1 µM. The compound further displayed an inhibition constant (Ki) in assay [1] of under 1 µM.
Take `Cc1cc(C2SC(CC(=O)N3CCC(n4cc(-c5ccccc5)[nH]c4=O)CC3)C(=O)N2CCC(C)C)cc2cn[nH]c12` (centres unmarked) [Compound 248]: the IC50 on endogenous CGRP receptor was under 1 µM. In assay [1], this compound showed a Ki of over 5 µM.
Taken in the same sequence, the figures for `CC(C)(C)N1CCN(c2c(F)cccc2C2S[C@@H](CC(=O)N3CCC(n4c(=O)[nH]c5ncccc54)CC3)C(=O)N2CCc2ccc(F)cc2)CC1` (some centres unmarked) [Compound 505] were under 1 µM and under 1 µM.
Taken in the same sequence, the figures for `CN1CCN(c2ccc(F)cc2C2SC(CC(=O)N3CCC(N4Cc5ccccc5NC4=O)CC3)C(=O)N2CCC(C)(C)C)CC1` (centres unmarked) [Compound 351] were 1 to 5 µM and under 1 µM.
`O=C(CC1SC(c2ccccc2)N(c2ccccc2)C1=O)N1CCC(N2Cc3ccccc3NC2=O)CC1` (centres unmarked) [Compound 187]: the IC50 on endogenous CGRP receptor is 1 to 5 µM. The compound also yielded a Ki in assay [1] of under 1 µM.
Turning to `CC(C)CN1C(=O)[C@H](CC(=O)N2CCC(n3c(=O)[nH]c4ncccc43)CC2)S[C@@H]1c1cccc(F)c1N1CCN(C(C)(C)C)CC1` [Compound 495], the IC50 at endogenous CGRP receptor was under 1 µM. Moreover, in assay [1], the Ki was under 1 µM.
Regarding `CN1CCN(c2ccccc2C2SC(CC(=O)N3CCC4(CC3)CNC(=O)c3ccccc3O4)C(=O)N2CCC(C)(C)C)CC1` (centres unmarked) [Compound 330], the IC50 on endogenous CGRP receptor is 1 to 5 µM. Moreover, the Ki in assay [1] is under 1 µM.
The matching figures for `CC(C)(C)N1CCN(c2c(F)cccc2[C@@H]2S[C@@H](CC(=O)N3CCC(N4CCc5ccccc5NC4=O)CC3)C(=O)N2CC2CCOCC2)CC1` [Compound 524]: under 1 µM and under 1 µM.
For `CC(C)(C)CCN1C(=O)[C@H](CC(=O)N2CCC(N3CCc4ccccc4NC3=O)CC2)SC1c1ccccc1C1CCN(C(=O)OC(C)(C)C)CC1` (mixture of isomers) [Compound 500], on endogenous CGRP receptor, the IC50 was over 5 µM. The Ki in assay [1] was under 1 µM.
Taken in the same sequence, the figures for `O=C(CC1SC(c2c(F)cccc2F)N(CC2CCCCC2)C1=O)N1CCC(N2CCc3ccccc3NC2=O)CC1` (centres unmarked) [Compound 16] were under 1 µM and under 1 µM.
As for `CN1CCN(c2cccc(F)c2C2SC(CC(=O)N3CCC(n4c(=O)[nH]c5ncccc54)CC3)C(=O)N2CCC(C)(C)C)CC1` (centres unmarked) [Compound 350], the IC50 on endogenous CGRP receptor was under 1 µM. In assay [1], the Ki is under 1 µM.
Turning to `O=C(CC1SC(c2ccccc2)N(CC2CCCCC2)C1=O)N1CCC(N2CCc3ccccc3NC2=O)CC1` (centres unmarked) [Compound 147], the IC50 on endogenous CGRP receptor was under 1 µM. The Ki in assay [1] is under 1 µM.
As for `CC(C)(C)CCN1C(=O)[C@H](CC(=O)N2CCC(n3c(=O)[nH]c4ncccc43)CC2)SC1c1cccc(F)c1N1CCN(C(C)(C)C)CC1` (some centres unmarked) [Compound 437], the IC50 on endogenous CGRP receptor is under 1 µM. In assay [1], this compound gave a Ki of under 1 µM.
For the compound `CC(C)CCN1C(=O)C(CC(=O)N2CCC(n3cc(-c4ccccc4)[nH]c3=O)CC2)SC12CCCCC2` (centres unmarked) [Compound 195], on endogenous CGRP receptor, the IC50 lay in the range of 1 to 5 µM. The same compound showed a Ki in assay [1] of over 5 µM.
Taken in the same sequence, the figures for `CC(C)CCN1C(=O)C(CC(=O)N2CCC(N3Cc4ccccc4NC3=O)CC2)SC1C1CCCC1` (centres unmarked) [Compound 188] were under 1 µM and under 1 µM.
The matching figures for `CN(c1ccccc1C1SC(CC(=O)N2CCC(N3CCc4ccccc4NC3=O)CC2)C(=O)N1CCC(C)(C)C)[C@H]1CCN(Cc2ccccc2)C1` (some centres unmarked) [Compound 403]: 1 to 5 µM and under 1 µM.
Turning to `CC(C)(C)N1CCN(c2c(F)cccc2C2S[C@@H](CC(=O)N3CCC(n4c(=O)[nH]c5ncccc54)CC3)C(=O)N2Cc2ccccc2)CC1` (some centres unmarked) [Compound 540], the IC50 at endogenous CGRP receptor is under 1 µM. The compound further registered a Ki in assay [1] of under 1 µM.
Take `CN(C)[C@@H]1CCN(c2ccccc2C2SC(CC(=O)N3CCC(N4CCc5ccccc5NC4=O)CC3)C(=O)N2CCC(C)(C)C)C1` (some centres unmarked) [Compound 405]: at endogenous CGRP receptor, the IC50 is 1 to 5 µM. Also, in assay [1], the Ki is under 1 µM.
The matching figures for `CC(C)CCN1C(=O)C(CC(=O)N2CCC(n3c(=O)[nH]c4ccccc43)CC2)SC1c1ccccc1-n1ccnc1` (centres unmarked) [Compound 289]: under 1 µM and under 1 µM.
For `CC(C)(C)CCN1C(=O)[C@H](CC(=O)N2CCC(n3c(=O)[nH]c4ncccc43)CC2)SC1c1cccc(F)c1N1CCC(O)C1` (some centres unmarked) [Compound 484], the IC50 on endogenous CGRP receptor is under 1 µM. The same compound came in with a Ki in assay [1] of under 1 µM.
On to `CCCCN1C(=O)[C@H](CC(=O)N2CCC(N3CCc4ccccc4NC3=O)CC2)SC1c1cccc(F)c1N1CCN(C(C)(C)C)CC1` (some centres unmarked) [Compound 522], for which the IC50 at endogenous CGRP receptor was under 1 µM. The compound also showed a Ki in assay [1] of under 1 µM.
Regarding `CC(C)(C)N1CCN(c2c(F)cccc2[C@@H]2S[C@@H](CC(=O)N3CCC(N4CCc5ccccc5NC4=O)CC3)C(=O)N2Cc2ccccc2)CC1` [Compound 548], the IC50 at endogenous CGRP receptor was under 1 µM. The compound further displayed a Ki in assay [1] of under 1 µM.
Regarding `CC(C)CCN1C(=O)C(CC(=O)N2CCC(N3Cc4ccccc4NC3=O)CC2)SC1c1cccc(OC(F)(F)F)c1` (centres unmarked) [Compound 169], the IC50 on endogenous CGRP receptor lay within 1 to 5 µM. This compound also yielded a Ki in assay [1] of under 1 µM.
Taken in the same sequence, the figures for `CC(C)N1CCN(c2c(F)cccc2[C@@H]2S[C@@](C)(CC(=O)N3CCC(N4CCc5ccccc5NC4=O)CC3)C(=O)N2CCC(C)(C)C)CC1` [Compound 431] were under 1 µM and under 1 µM.
Taken in the same sequence, the figures for `O=C(CC1SC(c2ccccc2)N(C2CCCCC2)C1=O)N1CCC(N2Cc3ccccc3NC2=O)CC1` (centres unmarked) [Compound 1] were under 1 µM and under 1 µM.
The matching figures for `CC(C)CCN1C(=O)C(CC(=O)N2CCC(N3Cc4ccccc4NC3=O)CC2)SC1c1ccccc1F` (centres unmarked) [Compound 170]: under 1 µM and under 1 µM.
With `CC(C)(C)N1CCN(c2c(F)cccc2[C@H]2S[C@@H](CC(=O)N3CCC(N4CCc5ccccc5NC4=O)CC3)C(=O)N2CC2CCCCC2)CC1` [Compound 514], the IC50 on endogenous CGRP receptor is under 1 µM. In assay [1], this compound gave a Ki of under 1 µM.
In the case of `CC(C)CCN1C(=O)[C@H](CC(=O)N2CCC(N3CCc4ccccc4NC3=O)CC2)SC1c1cccc(F)c1N1CCN(C(C)(C)C)CC1` (some centres unmarked) [Compound 544], the IC50 on endogenous CGRP receptor is under 1 µM. In assay [1], the Ki is under 1 µM.
As to `CC(C)CCN1C(=O)C(CC(=O)N2CCC(n3c(=O)[nH]c4ccccc43)CC2)SC1c1ccccc1` (centres unmarked) [Compound 104], the IC50 on endogenous CGRP receptor was over 5 µM. This compound returned a Ki in assay [1] of over 5 µM.
Consider `CC(C)(C)N1CCN(c2c(F)cccc2[C@H]2S[C@@H](CC(=O)N3CCC(N4CCc5ccccc5NC4=O)CC3)C(=O)N2CCc2ccccc2)CC1` [Compound 507], for which, on endogenous CGRP receptor, the IC50 was under 1 µM. Also, in assay [1], the Ki was under 1 µM.
For the compound `CN(C)CCNc1c(F)cccc1C1S[C@@H](CC(=O)N2CCC(n3c(=O)[nH]c4ncccc43)CC2)C(=O)N1CCC(C)(C)C` (stereo partly drawn) [Compound 518, 1-(1-(2-((5S)-2-(2-(2-(Dimethylamino)ethylamino)-3-fluorophenyl)-3-(3,3-dimethylbutyl)-4-oxothiazolidin-5-yl)acetyl)piperidin-4-yl)-1H-imidazo[4,5-b]pyridin-2(3H)-one], at endogenous CGRP receptor, the IC50 is under 1 µM. The Ki in assay [1] is under 1 µM.
Consider `CC(C)(C)CCN1C(=O)[C@H](CC(=O)N2CCC(n3c(=O)[nH]c4ncccc43)CC2)S[C@@H]1c1cccc(F)c1C1CCNCC1` [Compound 554], for which the IC50 at endogenous CGRP receptor was under 1 µM. In assay [1], the Ki was under 1 µM.
In the case of `CC(C)CCN1C(=O)C(CC(=O)N2CCC(N3Cc4ccccc4NC3=O)CC2)SC1c1cccc(F)c1` (centres unmarked) [Compound 67], on endogenous CGRP receptor, the IC50 was under 1 µM. In assay [1], this compound gave a Ki of under 1 µM.
Consider `CC(C)(C)CCN1C(=O)C(CC(=O)N2CCC(N3Cc4ccccc4NC3=O)CC2)SC1c1ccccc1N1CCN(CCO)CC1` (centres unmarked) [Compound 371], for which the IC50 on endogenous CGRP receptor is under 1 µM. Moreover, the Ki in assay [1] is under 1 µM.
With `CC(C)(C)CCN1C(=O)C(CC(=O)N2CCC(N3CCc4ccccc4NC3=O)CC2)SC1c1ccccc1C1=CCNCC1` (centres unmarked) [Compound 414], the IC50 at endogenous CGRP receptor lay within 1 to 5 µM. This compound showed a Ki in assay [1] of over 5 µM.
Taken in the same sequence, the figures for `COc1ccc(C(=O)C2CCN(C(=O)C[C@@H]3SC(c4cccc(F)c4N4CCN(C(C)(C)C)CC4)N(CCC(C)(C)C)C3=O)CC2)cc1` (some centres unmarked) [Compound 461] were under 1 µM and under 1 µM.
The matching figures for `O=C(CC1SC(c2ccccc2)N(CCc2ccncc2)C1=O)N1CCC(N2Cc3ccccc3NC2=O)CC1` (centres unmarked) [Compound 236]: 1 to 5 µM and under 1 µM.
